In US20260041670A1, “DRUGS FOR PREVENTING AND/OR TREATING ALZHEIMER'S DISEASE” (SHENZHEN UNIVERSITY OF ADVANCED TECHNOLOGY, priority 2023, published 2026):
≈ marks a conversion by molar mass, not a printed value. Like-named read-outs stand apart in the source and are kept apart here.

Tests used:
[1] = test system: plasma proteins; assay: Plasma protein binding (mouse); assay type: in vitro ADME
[2] = test system: plasma proteins; assay: Plasma protein binding (human); assay type: in vitro ADME
[3] = Stability in microsomes (mouse); assay type: in vitro ADME
[4] = In vivo PK (plasma and brain, LC-MS/MS) in ICR mice; conditions: Table 1; dose and route not stated there
[5] = Stability in hepatocytes (mouse); assay type: in vitro ADME; conditions: for hepatocyte CLint / half-life: hepatocytes; for hepatocyte CLint: read-out: Stability-Hepatocytes CL; for half-life: read-out: Stability-Hepatocytes T1/2
[6] = Solubility (pH 7.4; PBS); assay type: physicochemical
[7] = Permeability PAMPA-BBB; assay type: in vitro ADME; conditions: for Papp: PAMPA, read-out: Permeability-PAMPA-BBB Pe
[8] = Stability in plasma (human); assay type: in vitro ADME; conditions: for half-life: plasma, read-out: Stability-Plasma T1/2
[9] = cited from earlier work
[10] = test system: Caco-2 cells; assay: Permeability Caco-2; assay type: in vitro ADME
[11] = Stability in hepatocytes (human); assay type: in vitro ADME; conditions: for hepatocyte CLint / half-life: hepatocytes; for hepatocyte CLint: read-out: Stability-Hepatocytes CL; for half-life: read-out: Stability-Hepatocytes T1/2
[12] = molecular target: hERG (Homo sapiens, UniProt Q12809); assay: hERG inhibition
hERG, sequence (Q12809 whole entry): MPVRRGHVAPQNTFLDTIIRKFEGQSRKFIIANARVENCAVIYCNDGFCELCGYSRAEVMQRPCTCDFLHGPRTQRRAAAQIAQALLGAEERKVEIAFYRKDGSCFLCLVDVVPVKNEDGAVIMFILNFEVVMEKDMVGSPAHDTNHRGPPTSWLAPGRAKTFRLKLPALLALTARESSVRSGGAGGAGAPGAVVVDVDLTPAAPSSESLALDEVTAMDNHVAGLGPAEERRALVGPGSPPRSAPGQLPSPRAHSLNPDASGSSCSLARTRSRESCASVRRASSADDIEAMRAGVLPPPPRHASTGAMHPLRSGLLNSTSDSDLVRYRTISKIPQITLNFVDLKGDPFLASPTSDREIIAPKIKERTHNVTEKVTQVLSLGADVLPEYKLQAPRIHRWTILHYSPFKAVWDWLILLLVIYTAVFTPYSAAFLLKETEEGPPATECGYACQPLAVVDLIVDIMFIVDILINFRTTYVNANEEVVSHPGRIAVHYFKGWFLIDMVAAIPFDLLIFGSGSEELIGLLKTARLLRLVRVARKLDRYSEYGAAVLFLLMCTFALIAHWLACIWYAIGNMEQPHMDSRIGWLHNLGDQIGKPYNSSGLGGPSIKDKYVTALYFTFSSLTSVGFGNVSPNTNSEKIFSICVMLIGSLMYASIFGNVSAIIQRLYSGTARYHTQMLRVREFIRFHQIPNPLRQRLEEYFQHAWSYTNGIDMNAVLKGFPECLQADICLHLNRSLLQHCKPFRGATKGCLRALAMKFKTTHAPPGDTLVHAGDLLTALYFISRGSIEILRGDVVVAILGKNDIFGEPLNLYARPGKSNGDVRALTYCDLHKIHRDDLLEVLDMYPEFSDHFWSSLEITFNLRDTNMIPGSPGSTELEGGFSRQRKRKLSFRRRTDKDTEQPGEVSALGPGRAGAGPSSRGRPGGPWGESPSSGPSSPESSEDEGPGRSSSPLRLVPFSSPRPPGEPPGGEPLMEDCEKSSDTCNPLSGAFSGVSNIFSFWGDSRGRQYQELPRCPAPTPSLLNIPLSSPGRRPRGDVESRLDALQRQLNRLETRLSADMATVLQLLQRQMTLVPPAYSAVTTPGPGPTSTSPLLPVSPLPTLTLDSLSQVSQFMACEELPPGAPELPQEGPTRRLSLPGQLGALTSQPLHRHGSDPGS

[13] = Stability in microsomes (human); assay type: in vitro ADME; conditions: for microsomal CLint / half-life: liver microsomes; for microsomal CLint: read-out: Stability-Microsomes CL; for half-life: read-out: Stability-Microsomes T1/2
[14] = Stability in plasma (mouse); assay type: in vitro ADME; conditions: for half-life: plasma, read-out: Stability-Plasma T1/2
[15] = molecular target: T1, TrkB (Homo sapiens, UniProt Q16620); assay: Pro-survival MTT assay after staurosporine-induced apoptosis in BR6 and T48 cells; assay type: cell-based; conditions: STS 100 nM, 24 h, in words, relative to CF3CN
T1 construct: expressed in transfected cells; host or cells: human SH-SY5Y cells (BR6/Br6) and T48 cells
T1 sequence (Q16620 32-822, species assumed): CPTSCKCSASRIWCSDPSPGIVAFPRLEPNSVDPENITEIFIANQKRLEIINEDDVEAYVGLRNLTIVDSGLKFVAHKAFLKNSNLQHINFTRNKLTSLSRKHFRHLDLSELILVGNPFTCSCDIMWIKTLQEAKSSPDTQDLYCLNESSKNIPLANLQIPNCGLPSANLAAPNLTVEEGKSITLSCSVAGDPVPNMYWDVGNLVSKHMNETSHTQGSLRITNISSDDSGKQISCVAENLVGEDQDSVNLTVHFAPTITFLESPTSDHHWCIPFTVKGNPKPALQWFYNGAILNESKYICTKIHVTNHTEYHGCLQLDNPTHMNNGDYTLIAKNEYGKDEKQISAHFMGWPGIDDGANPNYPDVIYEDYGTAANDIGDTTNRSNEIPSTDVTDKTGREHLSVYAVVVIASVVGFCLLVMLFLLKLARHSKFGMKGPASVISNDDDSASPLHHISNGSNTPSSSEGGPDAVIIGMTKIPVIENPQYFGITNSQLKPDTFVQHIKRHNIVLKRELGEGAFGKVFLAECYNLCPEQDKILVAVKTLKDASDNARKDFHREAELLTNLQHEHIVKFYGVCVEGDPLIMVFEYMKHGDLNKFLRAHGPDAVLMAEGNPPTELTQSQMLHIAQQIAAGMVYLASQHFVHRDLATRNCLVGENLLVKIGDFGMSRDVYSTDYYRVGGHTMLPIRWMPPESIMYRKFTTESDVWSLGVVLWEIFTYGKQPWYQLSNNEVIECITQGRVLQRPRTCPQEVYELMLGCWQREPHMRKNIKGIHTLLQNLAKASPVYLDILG
Method: FIG. 1b illustrates EC50 values of CF3CN and derivatives thereof. BR6 and T48 cells are treated with staurosporine (STS) (100 nM) and TrkB agonists. CF3CN and compounds #1-4 are added in a dose-dependent manner at concentrations of 0, 5, 10, 50, 100, 500, and 1,000 nM. After 24 h, an MTT assay is performed, and EC50 values are calculated using Prism software (n=3; data are represented by mean±standard deviation (SD)).
The pro-survival effects of four derivatives were quantitatively analyzed in human SH-SY5Y cells and T48 cells stably transfected with the TrkB. […] As PLCγ1 bound with a p-Y816 residue on the TrkB receptor and was subsequently tyrosine-phosphorylated by active TrkB, a tyrosine phosphorylation signal was also monitored in this example (FIG. 1c).

[16] = Plasma protein binding (mouse); assay type: in vitro ADME; conditions: plasma, read-out: Plasma Protein Binding Fu, plasma
[17] = test system: Aβ42; assay: ELISA of Aβ42 in brain tissues; assay type: in vivo; conditions: 3×Tg mice, gavage 3 months
Method: FIG. 9i illustrates quantitative analysis of Aβ42 in brain tissues by an enzyme-linked immunosorbent assay (ELISA) (n=3, one-way ANOVA) (data are represented by mean±SD; […], ***p<0.005, ****p≤0.0001).
(§1) To investigate whether long-term chronic treatment with #2-NP alleviates cognitive deficits in 3×Tg AD model mice, mice were administered via gavage with #2 at 3 mg/kg, #2-NP at 3 mg/kg, and #2-NP at 10 mg/kg. […] The recognition index was increased by #2-NP in a dose-dependent manner (FIGS. 9a and b). […] Additionally, quantitative analysis of Aβ PET signals was performed using the specific ligand [18F] […] Collectively, #2-NP decreases cerebral Aβ deposition, reduces brain atrophy, and ameliorates cognitive deficits in 3×Tg mice.

[18] = Plasma protein binding (human); assay type: in vitro ADME; conditions: plasma, read-out: Plasma Protein Binding Fu, plasma
[19] = in vivo; conditions: ICR, mouse
Method: (§2) FIG. 6b illustrates plasma concentrations following administration of #2 or #2-NP. ICR mice are divided into four groups, which are administered with #2 at 2 mg/kg (intravenous injection, IV), #2 at 5 mg/kg (oral administration, PO), #2-NP at 5 mg/kg (PO), and #2-NP at 10 mg/kg (PO). Blood samples are collected from all three mice of each group at corresponding time points, and concentrations of #2 are quantitatively analyzed by a liquid chromatography-tandem mass spectrometry (LC-MS/MS). Cmax: maximum plasma concentration; Tmax: time to maximum concentration; T½: terminal elimination half-life; AUC: area under curves; MRT: mean residence time; CL: clearance; and F: relative oral bioavailability.
(§3) FIG. 13a illustrates plasma concentrations and PK parameters of #2 quantitatively analyzed by LC-MS/MS after IG administration of #2, #2-NP, and #2-LIP at 5 mg/kg, as well as IN administration of #2 and #2-LIP at 5 mg/kg (n=3; data are represented by mean±SD).
(§4) FIG. 13b illustrates brain concentrations and PK parameters of #2 quantitatively analyzed by LC-MS/MS after IG administration of #2, #2-NP, and #2-LIP at 5 mg/kg, as well as IN administration of #2 and #2-LIP at 5 mg/kg (n=3; data are represented by mean±SD).
(§5) To investigate the in vivo PK profile of #2-NP, lyophilized #2-NP powder was redissolved. […] For quantitative comparison of the effects of the nanoparticle system in delivering #2 to the blood circulation system and brain tissues, PK studies were performed in 2-month-old ICR mice.

[20] = test system: 3×Tg mice; assay: MRI cerebral cortex volume; assay type: in vivo; conditions: gavage 3 months
Method: FIG. 9c illustrates representative T2-weighted magnetic resonance imaging (MRI) scanning images of 3×Tg mice, with cortical regions of interest (ROI) marked by red lines.
FIG. 9d illustrates a quantified cerebral cortex volume of ROI (n=3, one-way ANOVA).
as §1

[21] = ICR, mouse, in vivo
Method: as §2, §3, §4, §5

[22] = test system: Aβ; assay: IHC staining of Aβ in brain sections; assay type: in vivo; conditions: 3×Tg mice, gavage 3 months
Method: FIG. 9e illustrates immunohistochemical (IHC) staining of Aβ in brain sections of 3×Tg mice, with a scale bar=50 μm.
FIG. 9f illustrates a quantitative diagram of FIG. 9e (n=6, one-way ANOVA).
as §1

[23] = Permeability Caco-2; assay type: in vitro ADME; conditions: human, Caco-2
[24] = test system: p-TrkB Y816; assay: Immunofluorescent staining of p-TrkB in brain sections; assay type: in vivo; conditions: 3×Tg mice, IF staining
Text: FIG. 11a illustrates immunofluorescent (IF) staining of p-TrkB and microtubule-associated protein 2 (MAP2) in brain tissues of 3×Tg mice, with a scale bar=50 μm.
FIG. 11e illustrates quantification of p-TrkB intensities in the hippocampus (n=6, one-way ANOVA) (data are represented by mean±SD; ns represents no statistically significant difference, *p<0.05, **p<0.01, ***p<0.001).
To further analyze the therapeutic effects of #2-NP against AD pathology, immunofluorescent (IF) staining of p-TrkB was performed on brain sections from drug-treated 3×Tg mice. […] Consequently, p-AEP IF signals were closely correlated with the upstream p-TrkB activity (FIGS. 11b & f). Simultaneously, active AEP IF staining was inversely coupled with the p-AEP activity, thereby leading to a progressive decline in APP C585 levels. Consistent with these findings, Tau N368 signals and AT8 IF intensity were closely correlated with each other (FIGS. 7C & D). Quantitative analysis of the fluorescence intensity confirmed these observations (FIGS. 11g-j).

[25] = test system: 3×Tg mice; assay: Novel object recognition (NOR) test after 3 months treatment; assay type: in vivo; conditions: gavage 3 months, #2 3 mg/kg, #2-NP 3 and 10 mg/kg
Method: FIG. 9a illustrates representative movement trajectories in a novel object recognition (NOR) test for 3×Tg mice from a Vehicle group, a #2 3 mg/kg group, a #2-NP 3 mg/kg group, and a #2-NP 10 mg/kg group.
FIG. 9b illustrates statistical analysis of recognition indexes of different groups (n=6, one-way ANOVA).
as §1

For `N#Cc1ccc(-c2cc(=O)c3ccc4[nH]c(C(F)(F)F)nc4c3o2)cc1` [CF3CN, reference compound], the “Plasma Protein Binding Fu, plasma” value [1] was 3.55% (mouse), the “Plasma Protein Binding Fu, plasma” value [2] was 0.101% (human); and the “Stability-Microsomes CL” value [3] was <12.8(mouse) μL/min/mg. For the same compound, the “Stability-Microsomes T1/2” value [3] was >180(mouse) min, the t1/2 [4] was 2.994 ± 1.538 h and the “Stability-Hepatocytes T1/2” value [5] was >480 (mouse); min. The solubility [6] was >200 µM, the “Permeability-PAMPA-BBB Pe” value [7] was 3.09 10 cm/s and the “Stability-Plasma T1/2” value [8] was >480 (human) min. For the same compound, the “B/P Ratio (Brain/Plasma Ratio)” value ([9]; earlier work on CF3CN) was “approximately 1%”, the “Caco-2 Efflux Ratio” value [10] was 3.6 and the “Permeability-Caco-2 Papp (b-a)” value ([10]; b-a) was 42.6 (b-a) 10 cm/s. For the same compound, the “Stability-Hepatocytes T1/2” value [11] was >480 (human) min, the IC50 [12] was > 25 µM and the “Stability-Microsomes CL” value [13] was <12.8(human); μL/min/mg. For the same compound, the “Stability-Microsomes T1/2” value [13] was >180(human); min and the “Stability-Plasma T1/2” value [14] was >480 (mouse); min.
In the case of `NCc1ccc(-c2cc(=O)c3ccc4nc(C(F)(F)F)[nH]c4c3o2)cc1` [#1], the “pro-survival EC50” value [15] is reported as “excessively high”.
For `CNCc1ccc(-c2cc(=O)c3ccc4nc(C(F)(F)F)[nH]c4c3o2)cc1` [#2], the fraction unbound [16] was 0.012, the Aβ42 content [17] was “significantly decreased” and the fraction unbound [18] was 0.046. For the same compound, the microsomal CLint ([3]; liver microsomes, read-out: Stability-Microsomes CL) was 10.5 µL/min/mg, the half-life ([3]; liver microsomes, read-out: Stability-Microsomes T1/2) was 2.22 h and the Kp [19] was ~0.1. For the same compound, the Cmax ([19]; 5 mg/kg, maximum plasma concentration (Cmax)) was 947 ng/mL, the AUC ([19]; inhaled or intranasal, 5 mg/kg) was 1900 ng·h/mL and the MRT ([19]; inhaled or intranasal, 5 mg/kg) was 2.11 h. It also gave a bioavailability ([19]; inhaled or intranasal, 5 mg/kg) of 34.3%, a half-life ([19]; inhaled or intranasal, 5 mg/kg, elimination half-life) of 1.54 h and a Cmax ([19]; inhaled or intranasal, 5 mg/kg, maximum plasma concentration (Cmax)) of 947 ng/mL. For the same compound, the AUC ([19]; iv, 2 mg/kg) was 2320 ng·h/mL, the half-life ([19]; iv, 2 mg/kg, brain t1/2) was 1.41 h and the half-life ([19]; iv, 2 mg/kg, plasma half-life (t½)) was 0.84 h. The half-life ([19]; iv, half-life in the brain) was 3.49 h, the AUC ([19]; po, 5 mg/kg) was 405 ng·h/mL and the Cmax ([19]; po, 5 mg/kg, Cmax) was 90.8 ng/mL. It also gave a half-life ([19]; po, 5 mg/kg, brain t1/2) of 3.49 h, a half-life ([19]; po, 5 mg/kg, half-life in the brain) of 2.39 h and a Cmax ([19]; po, 5 mg/kg, maximum plasma concentration (Cmax)) of 90.8 ng/mL. For the same compound, the half-life ([19]; po, 5 mg/kg, plasma half-life (t½)) was ~4.09 h, the half-life ([19]; t1/2) was 4.09 ± 2.65 h and the hepatocyte CLint [5] was < 3 µL/min/1e6 cells. The half-life [5] was > 8 h, the solubility ([6]; aqueous buffer) was 50 µM (≈ 18.7 µg/mL) and the “cerebral cortex volume compared to the Vehicle group” value [20] was “elevation trend without statistical significance”. The “brain AUC” value ([21]; 5 mg/kg) was 78.34 ng·h/mL, the “plasma Cmax, IN versus PO administration” value ([21]; 5 mg/kg) was “approximately 10 fold” and the “clearance (CL)” value ([21]; inhaled or intranasal, 5 mg/kg) was 43.95 mL/min/kg. For the same compound, the brain maximum concentration ([21]; iv) was 18.47 ng/g, the “brain AUC” value ([21]; iv, 2 mg/kg) was 84.26 ng·h/mL and the “brain Cmax” value ([21]; iv, 2 mg/kg) was 164.38 ng/g. For the same compound, the brain maximum concentration ([21]; po) was 27.663 ng/g, the “brain AUC” value ([21]; po, 5 mg/kg) was 35.75 ng·h/mL and the “brain Cmax” value ([21]; po, 5 mg/kg) was 18.47 ng/g. The clearance ([21]; po, 5 mg/kg) was 223 mL/min/kg, the Papp [7] was 0.135 ×10⁻⁶ cm/s and the “Aβ aggregation in the hippocampus” value [22] was “significantly reduced”. The half-life [8] was > 8 h, the efflux ratio [23] was 193 and the Papp A→B ([23]; a-b) was 0.0175 ×10⁻⁶ cm/s. The Papp B→A [23] was 13.9 ×10⁻⁶ cm/s, the hepatocyte CLint [11] was < 3 µL/min/1e6 cells and the half-life [11] was > 8 h. The IC50 [12] was > 10 µM, the “pro-survival EC50” value [15] was “comparable” and the microsomal CLint [13] was 2.32 µL/min/mg. The half-life [13] was 9.97 h, the half-life [14] was > 8 h and the “p-TrkB Y816 in the hippocampus” value [24] was “significant activation”. For the same compound, the “cognitive function in NOR test (recognition index)” value [25] was “failed to improve”.
With `CN(C)C(=O)c1ccc(-c2cc(=O)c3ccc4nc(C(F)(F)F)[nH]c4c3o2)cc1` [#4] the fraction unbound [16] was 0.009, the fraction unbound [18] was 0.004 and the hepatocyte CLint [5] was < 3 µL/min/1e6 cells. The half-life [5] was > 8 h, the solubility ([6]; aqueous buffer) was > 100 µM and the Papp [7] was 1.27 ×10⁻⁶ cm/s. For the same compound, the half-life [8] was > 8 h, the Papp B→A [23] was 45.9 ×10⁻⁶ cm/s and the hepatocyte CLint [11] was < 3 µL/min/1e6 cells. For the same compound, the half-life [11] was > 8 h, the IC50 [12] was > 10 µM and the “pro-survival EC50” value [15] was “comparable”. For the same compound, the half-life [14] was > 8 h.
For `O=c1cc(-c2ccccc2)oc2c(O)c(O)ccc12` [7,8-DHF, 7,8-dihydroxyflavone], the oral bioavailability ([9]; earlier work on 7,8-DHF) is listed as “approximately 4.6%”.
For `CNC(=O)c1ccc(-c2cc(=O)c3ccc4nc(C(F)(F)F)[nH]c4c3o2)cc1` [#3], the fraction unbound [16] was 0.005, the fraction unbound [18] was 0.002 and the hepatocyte CLint [5] was < 3 µL/min/1e6 cells. For the same compound, the half-life [5] was > 8 h, the solubility ([6]; aqueous buffer) was > 100 µM and the Papp [7] was 0.815 ×10⁻⁶ cm/s. For the same compound, the half-life [8] was > 8 h, the Papp B→A [23] was 28.7 ×10⁻⁶ cm/s and the hepatocyte CLint [11] was < 3 µL/min/1e6 cells. The half-life [11] was > 8 h, the IC50 [12] was > 10 µM and the microsomal CLint [13] was 1.03 µL/min/mg. The half-life [13] was 22.5 h and the half-life [14] was > 8 h.
